Results published in patent publication EP0245209A1, “Milbemycin derivatives, their preparation and their use as pesticides” (CIBA-GEIGY AG, priority 1986, dated 1987).

Key:
Assay type in all cases: in vivo
Aedes aegypti = test: Larvicidal action against Aedes aegypti (larvae in water); conditions: niedrigere Konzentrationen (below 3 ppm)
Protocol: Beispiel B.10: Larvizidwirkung gegen Aedes aegypti
Auf die Oberfläche von 150 ml Wasser, das sich in einem Behälter befindet, wird soviel einer 0,1 %igen acetonischen Lösung des Wirkstoffes pipettiert, dass Konzentrationen von wahlweise 12,5 ppm, 3,3 ppm und 1,6 ppm erhalten werden. Nach Verdunsten des Acetons wird der Behälter mit ca. 30-40 3 Tage alten Aedes-Larven beschickt. Nach 1, 2 und 5 Tagen wird die Mortalität geprüft.

[1] = tested on: Ll-Larven von Lucilia cuprina; test: Action against L1 larvae of Lucilia cuprina (as B.2); conditions: niedrigere Konzentrationen (below 100 ppm)
Protocol: (§1) 1 ml einer wässrigen Suspension der zu prüfenden Aktivsubstanz werden so mit 3 ml eines speziellen Larvenzuchtmediums bei ca. 50°C vermischt, dass ein Homogenisat von wahlweise 250 ppm oder 100 ppm Wirkstoffgehalt entsteht. In jede Reagenzglas-Probe werden ca. 30 Lucilia-Larven (L1) eingesetzt. Nach 4 Tagen wird die Mortalitätsrate bestimmt. Die Verbindungen aus den Herstellungsbeispielen zeigen bei 250 ppm eine Wirkung von 100 %, wobei Verbindungen aus den Herstellungsbeispielen diese Wirkung auch noch bei der reduzierten Wirkstoffkonzentration von 100 ppm erzielen, wie beispielsweise die Verbindungen Nr. 1.10, 1.18, 1.26, 1.34, 1.39, 1.43, 1.46, 1.54, 1.58, 1.62, 1.82, 1.90 und 1.114.
Beispiel B.3: Wirkung gegen Ll-Larven von Lucilia cuprina
Der Test wird wie unter B.2 beschrieben durchgeführt, jedoch mit Larven von Lucilia cuprina. […] Bei manchen Verbindungen wird dieser Effekt bereits mit niedrigeren Konzentrationen erreicht, beispielsweise mit den Verbindungen Nr. 1.34, 1.90 und 1.114.

[2] = tested on: LI-Larven von Lucilia sericata; test: Action against L1 larvae of Lucilia sericata (larval culture medium, mortality); conditions: reduced concentration of 100 ppm, after 4 days; for mortality at 100 ppm: Lucilia sericata, 96 h, read-out: Wirkung (Mortalitätsrate)
Protocol: Beispiel B.2: Wirkung gegen LI-Larven von Lucilia sericata
as §1

Spodoptera littoralis = test: Insecticidal stomach-poison action on Spodoptera littoralis (sprayed cotton plants); conditions: niedrigere Konzentrationen (below 12,5 ppm); L1 larvae
Protocol: Beispiel B.6: Insektizide Frassgift-Wirkung bei Spodoptera littoralis
Eingetopfte Baumwollpflanzen im 5-Blatt-Stadium werden mit einer acetonisch/wässrigen Versuchslösung besprüht, die 3, 12,5 oder 50 ppm der zu prüfenden Verbindung enthält.
Nach dem Antrocknen des Belags werden die Pflanzen mit ca. 30 Larven (LI-Stadium) von Spodoptera littoralis besetzt. Pro Versuchsverbindung und pro Test-Spezies verwendet man zwei Pflanzen. Der Versuch wird bei ca. 24°C und 60 % relativer Luftfeuchtigkeit durchgeführt. Auswertungen und Zwischenauswertungen auf moribunde Tiere, Wachstum und Larven und Frassschäden erfolgen nach 24 Stunden, 48 Stunden und 72 Stunden.

[3] = tested on: OP-sensible Tetranychus urticae; test: Action against plant-damaging acarids, OP-sensitive Tetranychus urticae (sprayed bean plants); conditions: niedrigere Konzentrationen (below 1,6 ppm); after seven days
Protocol: Beispiel B.7: Wirkung gegen pflanzenschädigende Akariden OP-sensible Tetranychus urticae
Die Primärblätter von Bohnenpflanzen (Phaseolus vulgaris) werden 16 Stunden vor dem Versuch mit einem durch T. urticae infestierten, aus einer Massenzucht stammenden Blattstück belegt. […] Die Temperatur in der Gewächshauskabine beträgt ca. 25°C.
Nach sieben Tagen wird unter dem Binokular auf Prozentsatz mobiler Stadien (Adulte und Nymphen) und auf vorhandene Eier ausgewertet.

Caenorhabditis elegans = test: Soil nematicidal action against Caenorhabditis elegans (as B.4); conditions: test as B.4
Protocol: (§2) Eier von Meloidogyne incognita werden in Sand eingemischt. Dieses Gemisch wird dann in 200 ml fassende Tontöpfe eingebracht (5000 Eier pro Topf). Am gleichen Tag wird pro Topf eine 3 Wochen alte Tomatenpflanze gepflanzt und der aus 50 %-igem Emulsionskonzentrat formulierte Wirkstoff mittels Druckapplikation in die Töpfe hineingegeben. Die eingetopften Pflanzen werden nun bei einer Temperatur von 26!1°C und einer relativen Luftfeuchtigkeit von 60 % in einem Gewächshaus aufgestellt. Nach Ablauf von 4 Wochen erfolgt eine Evaluierung durch Untersuchung der Pflanzen auf Wurzelgallbildung nach dem sogenannten Wurzelgall-Index ("Knot Index").
Beispiel B.5: Bodennematizide Wirkung gegen Caenorhabditis elegans
Der Test wird wie unter B.4 beschrieben durchgeführt, jedoch mit Caenorhabditis elegans. Die Verbindungn der Herstellungsbeispiele zeigen in diesem Test eine gute Wirksamkeit. Um eine fast vollständige Hemmung der Reproduktion zu erreichen, genügen bei manchen Verbindungen Konzentrationen von 1 ppm und weniger, wie beispielsweise bei den Verbindungen Nr. 1.39, 1.70 und 1.90 und vor allem Nr. 1.2, 1.3, 1.26, 1.43 und 1.66.

Meloidogyne incognita = test: Soil nematicidal action against Meloidogyne incognita (tomato plants, root-knot index); conditions: after 4 weeks
Protocol: Beispiel B.4: Bodennematizide Wirkung gegen Meloidogyne incognita
as §2

Dermanyssus gallinae = test: Miticidal action against Dermanyssus gallinae (contact test in glass vessel, mortality); conditions: geringere Wirkstoffkonzentrationen (below 100 ppm); observed three days; 4320 min
Protocol: Beispiel B.1: Milbizide Wirkung gegen Dermanyssus gallinae
2 bis 3 ml einer Testlösung (250, 100 und 10 ppm Aktivsubstanz) werden in einen nach oben offenen Glasbehälter gegeben und ca. 200 Milben in unterschiedlichen Entwicklungsstadien in diesen Behälter eingesetzt. Der Glasbehälter wird mit einem Wattebausch verschlossen und 10 Minuten gleichmässig, bis zur vollständigen [benetzung der Milben geschüttelt. Danach wird der Behälter umgekehrt hingestellt, bis die überschüssige Testlösung von der Watte aufgesogen ist. Der Behälter wird erneut gekehrt und die behandelten Zecken zur Evaluierung der Wirksamkeit der Testsubstanzen drei Tage unter Laborbedingungen beobachtet, wobei die Mortalität als Massstab für Wirksamkeit herangezogen wird.

Aphis craccivora = test: Contact action on Aphis craccivora (sprayed pea seedlings); conditions: niedrigere Konzentrationen (below 25 ppm); after 3 days
Description: Beispiel B.9: Kontaktwirkung auf Aphis craccivora
Erbsenkeimlinge, die mit sämtlichen Entwicklungsstadien der Laus infiziert sind, werden mit einer aus einem Emulsionskonzentrat hergestellten Wirkstofflösung besprüht, die wahlweise 50 ppm, 25 ppm oder 12,5 ppm Wirkstoff enthält. Nach 3 Tagen wird auf mehr als 80 % tote bzw. abgefallene Blattläuse ausgewertet. Nur bei dieser Wirkungshöhe wird ein Präparat als wirksam eingestuft.

Row | Abtötung (Aphis craccivora) [%] | Molecule | Abtötung sämtlicher Larven (Aedes aegypti) | Abtötung (Spodoptera littoralis) | Abtötung [3] | Wirkung (Mortalität) (Dermanyssus gallinae) [%] | mortality at 100 ppm [2] [%] | other results
1 | – | 13ß-(9-Fluorenyl-methoxy)-carbonyloxy-milbemycin A4 [1.114] | vollständige Abtötung | – | – | – | – | Vernichtung des Schädlings [1]: vollständige Vernichtung; Wirkung (Mortalitätsrate) [2]: 100%
2 | – | 13β-(Cyclohexyloxycarbonyloxy)-milbemycin A4 [1.82] | vollständige Abtötung | vollständige Abtötung | vollständige Abtötung | – | – | Wirkung (Mortalitätsrate) [2]: 100%
3 | – | 13β-([-]-Menthyloxy)-carbonyloxy-milbemycin A4 [1.90] | vollständige Abtötung | – | – | – | – | Vernichtung des Schädlings [1]: vollständige Vernichtung; Wirkung (Mortalitätsrate) [2]: 100%; Konzentration für fast vollständige Hemmung der Reproduktion (Caenorhabditis elegans): ≤ 1 ppm; Konzentration für fast vollständige Hemmung der Reproduktion (Meloidogyne incognita): ≤ 1 ppm
4 | 100 | CC[C@H]1O[C@]2(CC[C@@H]1C)C[C@@H]1C[C@@H](C/C=C(\C)[C@H](OC(=O)OC)[C@@H](C)/C=C/C=C3\CO[C@@H]4[C@H](O)C(C)=C[C@@H](C(=O)O1)[C@]34O)O2 [1.2, 13ß-(Methoxycarbonyloxy)-milbemycin A4] | – | – | – | 100 | – | –
5 | 100 | COC(=O)O[C@H]1/C(C)=C/C[C@@H]2C[C@@H](C[C@]3(CC[C@H](C)[C@@H](C(C)C)O3)O2)OC(=O)[C@@H]2C=C(C)[C@@H](O)[C@H]3OC/C(=C\C=C\[C@@H]1C)[C@]32O [1.3, 13ß-(Methoxycarbonyloxy)-milbemycin D] | – | vollständige Abtötung | vollständige Abtötung | 100 | – | –
6 | 100 | CC[C@H]1O[C@]2(CC[C@@H]1C)C[C@@H]1C[C@@H](C/C=C(\C)[C@H](OC(=O)OC(C)C)[C@@H](C)/C=C/C=C3\CO[C@@H]4[C@H](O)C(C)=C[C@@H](C(=O)O1)[C@]34O)O2 [1.10, 13ß-Isopropyloxycarbonyloxy-milbemycin A4] | vollständige Abtötung | vollständige Abtötung | vollständige Abtötung | 100 | 100 | –
7 | – | CC[C@H]1O[C@]2(CC[C@@H]1C)C[C@@H]1C[C@@H](C/C=C(\C)[C@H](OC(=O)OCCBr)[C@@H](C)/C=C/C=C3\CO[C@@H]4[C@H](O)C(C)=C[C@@H](C(=O)O1)[C@]34O)O2 [1.18, 13ß-(2-Bromäthoxy)-carbonyloxy-milbemycin A4] | – | – | – | 100 | 100 | –
8 | – | CC[C@H]1O[C@]2(CC[C@@H]1C)C[C@@H]1C[C@@H](C/C=C(\C)[C@H](OC(=O)OCC(Cl)(Cl)Cl)[C@@H](C)/C=C/C=C3\CO[C@@H]4[C@H](O)C(C)=C[C@@H](C(=O)O1)[C@]34O)O2 [1.26, 13ß-[(2,2,2-Trichlorethoxy)-carbonyloxy]-milbemycin A4] | vollständige Abtötung | vollständige Abtötung | – | – | 100 | –
9 | 100 | CC[C@H]1O[C@]2(CC[C@@H]1C)C[C@@H]1C[C@@H](C/C=C(\C)[C@H](OC(=O)OC(C)(C)C(Cl)(Cl)Cl)[C@@H](C)/C=C/C=C3\CO[C@@H]4[C@H](O)C(C)=C[C@@H](C(=O)O1)[C@]34O)O2 [1.34, 13ß-[(1,1-Dimethyl-2,2,2-trichlorethoxy)-carbonyloxy]-milbemycin A4] | vollständige Abtötung | vollständige Abtötung | vollständige Abtötung | – | 100 | Vernichtung des Schädlings [1]: vollständige Vernichtung
10 | 100 | C=COC(=O)O[C@H]1/C(C)=C/C[C@@H]2C[C@@H](C[C@]3(CC[C@H](C)[C@@H](C(C)C)O3)O2)OC(=O)[C@@H]2C=C(C)[C@@H](O)[C@H]3OC/C(=C\C=C\[C@@H]1C)[C@]32O [1.39, 13ß-(Vinyloxycarbonyloxy)-milbemycin D] | – | – | – | 100 | 100 | –
11 | 100 | C=CCOC(=O)O[C@H]1/C(C)=C/C[C@@H]2C[C@@H](C[C@]3(CC[C@H](C)[C@@H](C(C)C)O3)O2)OC(=O)[C@@H]2C=C(C)[C@@H](O)[C@H]3OC/C(=C\C=C\[C@@H]1C)[C@]32O [1.43, 13β-(Allyloxycarbonyloxy)-milbemycin D] | – | – | – | 100 | 100 | –
12 | – | CC[C@H]1O[C@]2(CC[C@@H]1C)C[C@@H]1C[C@@H](C/C=C(\C)[C@H](OC(=O)OCc3ccccc3)[C@@H](C)/C=C/C=C3\CO[C@@H]4[C@H](O)C(C)=C[C@@H](C(=O)O1)[C@]34O)O2 [1.46, 13β-Benzyloxycarbonyloxy-milbemycin A4] | – | – | – | 100 | 100 | –
13 | 100 | CC[C@H]1O[C@]2(CC[C@@H]1C)C[C@@H]1C[C@@H](C/C=C(\C)[C@H](OC(=O)Oc3ccccc3)[C@@H](C)/C=C/C=C3\CO[C@@H]4[C@H](O)C(C)=C[C@@H](C(=O)O1)[C@]34O)O2 [1.54, 13ß-Phenoxycarbonyloxy-milbemycin A4] | vollständige Abtötung | vollständige Abtötung | – | – | 100 | –
14 | – | CC[C@H]1O[C@]2(CC[C@@H]1C)C[C@@H]1C[C@@H](C/C=C(\C)[C@H](OC(=O)Oc3ccc([N+](=O)[O-])cc3)[C@@H](C)/C=C/C=C3\CO[C@@H]4[C@H](O)C(C)=C[C@@H](C(=O)O1)[C@]34O)O2 [1.58, 13ß-(4-Nitrophenoxy)-carbonyloxy-milbemycin A4] | vollständige Abtötung | – | – | – | 100 | –
15 | – | CC[C@H]1O[C@]2(CC[C@@H]1C)C[C@@H]1C[C@@H](C/C=C(\C)[C@H](OC(=O)Oc3ccc(C(=O)OC)cc3)[C@@H](C)/C=C/C=C3\CO[C@@H]4[C@H](O)C(C)=C[C@@H](C(=O)O1)[C@]34O)O2 [1.62, 13ß-(4-Methoxycarbonylphenoxy)-carbonyloxy-milbemycin A4] | vollständige Abtötung | – | – | – | 100 | –
16 | – | CC[C@H]1O[C@]2(CC[C@@H]1C)C[C@@H]1C[C@@H](C/C=C(\C)[C@H](OC(=O)OCC(Cl)(Cl)C(F)(F)F)[C@@H](C)/C=C/C=C3\CO[C@@H]4[C@H](O)C(C)=C[C@@H](C(=O)O1)[C@]34O)O2 [1.98, 13ß-(3,3,3-Trifluor-2,2-dichlor-propyloxy)-carbonyloxy-milbemycin A4] | vollständige Abtötung | vollständige Abtötung | vollständige Abtötung | – | – | –
